# Data taken from paper PMC10115881, “Disrupting the α-synuclein-ESCRT interaction with a peptide inhibitor mitigates neurodegeneration in preclinical models of Parkinson’s disease” (Nature Communications, 2023).
# Test system: endogenous a-syn
# Experiment: Endogenous a-syn immunofluorescence in rat cortical neurons
# Assay type: cell-based
# From the text: Pregnant rats (E17) of the Sprague-Dawley strain were purchased from Envigo. Embryos were surgically removed from the mothers and cortices dissected in Hanks Balanced salt solution (Gibco). The meninges were removed, and cells were dissociated using a papain dissociation system (Worthington) before being resuspended in Neurobasal medium A supplemented with antibiotic-antimycotic solution (Gibco), L-glutamine substitute (GlutaMAX™; Gibco) and factor B27 (Gibco). […]
# After fixation, cells were permeabilized with 0.2% Triton-X-100 for 15 min, washed three times with PBS and then incubated with blocking solution (1% BSA, 22.52 mg/mL glycine, 0.1% Tween-20 in PBS or 0.4% saponin, 1% BSA, and 5% goat or donkey serum in PBS) for 1 h. […] Following another three washes with PBS, nuclei were counterstained with DAPI (ThermoFisher) and then coverslips were mounted on slides using Dako fluorescence mounting medium (Agilent) and sealed using clear nail varnish.
# Confocal images of immunofluorescent staining were acquired with a Zeiss LSM880 confocal microscope equipped with 405, 488, 555, and 639 nm laser lines. All images were taken within the linear range at constant gain and pinhole settings at optimal resolution settings determined by the software. […]
sequence,measurement,value
DEEIERQLKALG [PDpep1.3],Effect on endogenous a-syn fluorescence,reduced fluorescence intensity
